Source: patent US20240124432A1, “HERBICIDAL COMPOUNDS” (SYNGENTA CROP PROTECTION AG, priority 2020, published 2024)

How the values were obtained:
Format in all cases: in vivo
SETFA [1] = assay: Pre-emergence biological efficacy; details: Setaria faberi, 312 h, evaluated after 13 days, read-out: damage to plant (100=total damage to plant; 0=no damage to plant)
Outline: (§1)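 Pre-emergence spray applied one day after sowing in standard soil, compound delivered from an IF50-based emulsifiable formulation diluted in 0.2% Genapol XO80. Plants then grew under glasshouse conditions for 13 days before damage was rated on a 0 (none) to 100 (total) scale.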

EPHHL [2] = assay: Pre-emergence biological efficacy; details: Euphorbia heterophylla, 312 h, evaluated after 13 days, read-out: damage to plant (100=total damage to plant; 0=no damage to plant)
Outline: as §1

AMAPA [3] = assay: Pre-emergence biological efficacy; details: Amaranthus palmeri, 312 h, evaluated after 13 days, read-out: damage to plant (100=total damage to plant; 0=no damage to plant)
Outline: as §1

ECHCG [4] = assay: Pre-emergence biological efficacy; details: Echinochloa crus-galli, 312 h, evaluated after 13 days, read-out: damage to plant (100=total damage to plant; 0=no damage to plant)
Outline: as §1

LOLPE [5] = assay: Pre-emergence biological efficacy; details: Lolium perenne, 312 h, evaluated after 13 days, read-out: damage to plant (100=total damage to plant; 0=no damage to plant)
Outline: as §1

IPOHE [6] = assay: Pre-emergence biological efficacy; details: Ipomoea hederacea, 312 h, evaluated after 13 days, read-out: damage to plant (100=total damage to plant; 0=no damage to plant)
Outline: as §1

SETFA [7] = assay: Post-emergence biological efficacy; details: Setaria faberi, 312 h, evaluated after 13 days, read-out: damage to plant (100=total damage to plant; 0=no damage to plant)
Outline: (§2)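 Damage was rated 13 days after treatment, from 0 (none) to 100 (total). Test compounds, formulated in IF50 and diluted with 0.2% Genapol XO80 to final dose, were sprayed on glasshouse plants raised for 14 days from seed.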

EPHHL [8] = assay: Post-emergence biological efficacy; details: Euphorbia heterophylla, 312 h, evaluated after 13 days, read-out: damage to plant (100=total damage to plant; 0=no damage to plant)
Outline: as §2

CHEAL = assay: Post-emergence biological efficacy; details: Chenopodium album, 312 h, evaluated after 13 days, read-out: damage to plant (100=total damage to plant; 0=no damage to plant)
Outline: as §2

ELEIN = assay: Post-emergence biological efficacy; details: 312 h, evaluated after 13 days, read-out: damage to plant (100=total damage to plant; 0=no damage to plant)
Outline: as §2

DIGSA = assay: Post-emergence biological efficacy; details: Digitaria sanguinalis, 312 h, evaluated after 13 days, read-out: damage to plant (100=total damage to plant; 0=no damage to plant)
Outline: as §2

AMAPA [9] = assay: Post-emergence biological efficacy; details: Amaranthus palmeri, 312 h, evaluated after 13 days, read-out: damage to plant (100=total damage to plant; 0=no damage to plant)
Outline: as §2

ECHCG [10] = assay: Post-emergence biological efficacy; details: Echinochloa crus-galli, 312 h, evaluated after 13 days, read-out: damage to plant (100=total damage to plant; 0=no damage to plant)
Outline: as §2

LOLPE [11] = assay: Post-emergence biological efficacy; details: Lolium perenne, 312 h, evaluated after 13 days, read-out: damage to plant (100=total damage to plant; 0=no damage to plant)
Outline: as §2

IPOHE [12] = assay: Post-emergence biological efficacy; details: Ipomoea hederacea, 312 h, evaluated after 13 days, read-out: damage to plant (100=total damage to plant; 0=no damage to plant)
Outline: as §2

| SMILES | pest or weed control at 250 g/ha (SETFA [1]) | pest or weed control at 250 g/ha (EPHHL [2]) | pest or weed control at 250 g/ha (AMAPA [3]) | pest or weed control at 250 g/ha (ECHCG [4]) | pest or weed control at 250 g/ha (LOLPE [5]) | pest or weed control at 250 g/ha (IPOHE [6]) | pest or weed control at 250 g/ha (SETFA [7]) | pest or weed control at 250 g/ha (EPHHL [8]) | pest or weed control at 250 g/ha (CHEAL) | pest or weed control at 250 g/ha (ELEIN) | pest or weed control at 250 g/ha (DIGSA) | pest or weed control at 250 g/ha (AMAPA [9]) | pest or weed control at 250 g/ha (ECHCG [10]) | pest or weed control at 250 g/ha (LOLPE [11]) | pest or weed control at 250 g/ha (IPOHE [12]) |
| --- | --- | --- | --- | --- | --- | --- | --- | --- | --- | --- | --- | --- | --- | --- | --- |
| CCOC(=O)C1(C)CC(c2cc(-c3c(Cl)cc(C(F)(F)F)c[n+]3[O-])c(F)cc2Cl)=NO1 (stereo not drawn) [Compound 1-667, Ethyl 3-[2-chloro-5-(3-chloro-1-oxido-5-trifluoromethyl-2-pyridyl)-4-fluoro-phenyl]-5-methyl-4H-isoxazole-5-carboxylate] | 100% | 100% | 100% | 100% | 100% | 100% | 100% | 100% | 100% | 100% | 100% | 100% | 100% | 100% | 100% |
| CCOC(=O)C1(C)CC(c2cc(-c3ccc(Cl)nn3)c(F)cc2Cl)=NO1 (stereo not drawn) [Compound 1-679, Ethyl 3-[2-chloro-5-(6-chloropyridazin-3-yl)-4-fluoro-phenyl]-5-methyl-4H-isoxazole-5-carboxylate] | 0% | 0% | 0% | 0% | 0% | 0% | 50% | 50% | 60% | 60% | 50% | 60% | 50% | 10% | 40% |
| CCOC(=O)C1(C)CC(c2cc(-c3cncc(C(F)(F)F)n3)c(F)cc2Cl)=NO1 (stereo not drawn) [Compound 1-727, Ethyl 3-[2-chloro-4-fluoro-5-[6-(trifluoromethyl)pyrazin-2-yl]phenyl]-5-methyl-4H-isoxazole-5-carboxylate] | 10% | 10% | 0% | 30% | 0% | 20% | 90% | 70% | 70% | 80% | 70% | 70% | 90% | 20% | 100% |
| CCOC(=O)C1(C)CC(c2cc(-c3cnc(C)cn3)c(F)cc2Cl)=NO1 (stereo not drawn) [Compound 1-739, Ethyl 3-[2-chloro-4-fluoro-5-(5-methylpyrazin-2-yl)phenyl]-5-methyl-4H-isoxazole-5-carboxylate] | 0% | 0% | 0% | 0% | 0% | 0% | 30% | 40% | 50% | 50% | 30% | 50% | 30% | 0% | 50% |
| CCOC(=O)C1(C)CC(c2cc(-c3cnc4ccc(C(F)(F)F)cc4n3)c(F)cc2Cl)=NO1 (stereo not drawn) [Compound 1-763, Ethyl 3-[2-chloro-4-fluoro-5-[7-(trifluoromethyl)quinoxalin-2-yl]phenyl]-5-methyl-4H-isoxazole-5-carboxylate] | 0% | 0% | 0% | 0% | 0% | 0% | 0% | 20% | 20% | 0% | 0% | 20% | 0% | 0% | 10% |
| CCOC(=O)C1(C)CC(c2cc(-c3nccnc3C)c(F)cc2Cl)=NO1 (stereo not drawn) [Compound 1-775, Ethyl 3-[2-chloro-4-fluoro-5-(3-methylpyrazin-2-yl)phenyl]-5-methyl-4H-isoxazole-5-carboxylate] | 0% | 0% | 0% | 0% | 0% | 0% | 50% | 40% | 60% | 50% | 20% | 60% | 20% | 0% | 30% |
| CCOC(=O)C1(C)CC(c2cc(-c3nc(C)cnc3C)c(F)cc2Cl)=NO1 (stereo not drawn) [Compound 1-787, Ethyl 3-[2-chloro-5-(3,6-dimethylpyrazin-2-yl)-4-fluoro-phenyl]-5-methyl-4H-isoxazole-5-carboxylate] | 20% | 10% | 10% | 20% | 20% | 10% | 40% | 40% | 60% | 60% | 40% | 50% | 40% | 20% | 50% |
| CCOC(=O)C1(C)CC(c2cc(-c3ncc(C(F)(F)F)nc3Cl)c(F)cc2Cl)=NO1 (stereo not drawn) [Compound 1-811, Ethyl 3-[2-chloro-5-[3-chloro-5-(trifluoromethyl)pyrazin-2-yl]-4-fluoro-phenyl]-5-methyl-4H-isoxazole-5-carboxylate] | 50% | 100% | 100% | 70% | 10% | 0% | 100% | 80% | 60% | 90% | 40% | 80% | 50% | 70% | 70% |
| CCOC(=O)C1(C)CC(c2cc(-c3nccnc3C(F)(F)F)c(F)cc2Cl)=NO1 (stereo not drawn) [Compound 1-823, Ethyl 3-[2-chloro-4-fluoro-5-[3-(trifluoromethyl)pyrazin-2-yl]phenyl]-5-methyl-4H-isoxazole-5-carboxylate] | 20% | 40% | 0% | 20% | 20% | 90% | 60% | 60% | 60% | 30% | 50% | 60% | 70% | 10% | 60% |
| CCOC(=O)C1(C)CC(c2cc(-c3cnc4c(c3)OC(F)(F)O4)ccc2C#N)=NO1 (stereo not drawn) [Compound 2-451, Ethyl 3-[2-cyano-5-(2,2-difluoro-[1,3]dioxolo[4,5-b]pyridin-6-yl)phenyl]-5-methyl-4H-isoxazole-5-carboxylate] | 70% | 0% | 90% | 60% | 40% | 0% | 40% | 70% | 50% | 70% | 50% | 40% | 30% | 20% | 30% |
